In patent publication US20240415918A1, “Polypeptide and its use as a CCK receptor agonist/antagonist” (Centre for Regenerative Medicine & Health, Hong Kong …, priority 2021, published 2024):
Where a SMILES comes first, the peptide text is derived from it. [ ]: non-standard residue; d: D form. The star is where a group is joined. Trp(5-OH) = N[C@@H](Cc1c[nH]c2ccc(O)cc12)C(=O)O; dTrp(6-OH) = N[C@H](Cc1c[nH]c2cc(O)ccc12)C(=O)O; Phe(3-Br) = N[C@@H](Cc1cccc(Br)c1)C(=O)O; dNMeW = CN[C@H](Cc1c[nH]c2ccccc12)C(=O)O; Fmoc = O=C(OCC1c2ccccc2-c2ccccc21)*; Gly(octyl) = CCCCCCCC[C@H](N)C(=O)O; Ahp(2) = CCCCC[C@H](N)C(=O)O; Nle = CCCC[C@H](N)C(=O)O

Legend:
[1] = molecular target: T1, CCK-B receptors (CHO-CCK) (Homo sapiens, UniProt P32239); assay: Calcium flux (Fluo-8) agonist test on CHO-CCK model cells; type: cell-based; conditions: for EC50: CHO-CCK cells; for Agonistic Activity (%) at 10 μM: compound at 10 μM, percentage of signal of 20 nM CCK8 alone
T1 construct: expressed in transfected cells; host or cells: CHO (CHO-CCK model cells)
T1 sequence (P32239 1-447): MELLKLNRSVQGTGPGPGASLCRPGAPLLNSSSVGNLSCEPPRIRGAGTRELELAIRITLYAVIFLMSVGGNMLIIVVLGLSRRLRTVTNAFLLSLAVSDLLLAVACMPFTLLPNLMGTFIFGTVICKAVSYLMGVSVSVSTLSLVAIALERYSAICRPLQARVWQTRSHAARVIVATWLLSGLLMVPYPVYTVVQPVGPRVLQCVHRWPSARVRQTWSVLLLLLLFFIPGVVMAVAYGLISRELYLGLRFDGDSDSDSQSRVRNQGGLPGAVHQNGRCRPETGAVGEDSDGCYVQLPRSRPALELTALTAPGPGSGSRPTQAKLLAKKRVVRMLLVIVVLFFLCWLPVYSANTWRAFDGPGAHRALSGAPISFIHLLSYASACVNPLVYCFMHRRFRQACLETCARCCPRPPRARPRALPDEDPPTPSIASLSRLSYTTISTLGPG
Summary of the method: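 Agonist-mode Fluo-8 calcium flux read on CHO-CCK cells after dye loading 30 min at 37 °C plus 30 min at room temperature.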

[2] = molecular target: T1, CCK-B receptors (CHO-CCK); assay: Calcium flux (Fluo-8) antagonist test on CHO-CCK model cells in presence of CCK8; type: cell-based
[3] = compound alone, 100% = 20 nM CCK8
[4] = compound together with 10 nM CCK8
[5] = Fluo-8 calcium flux, 100% control = 20 nM CCK8
[6] = in presence of 10 nM CCK8, bound in μM
[7] = compound together with 10 nM CCK8, bound in μM
[8] = Fluo-8 calcium flux, bound in μM

With `CSCC[C@H](NC(=O)[C@H](N)Cc1c[nH]c2ccccc12)C(=O)N[C@@H](CC(=O)O)C(=O)N[C@@H](Cc1cccc(I)c1)C(N)=O` [HT-28, D-Trp-Met-Asp-Phe(3-I)-NH2] the EC50 [1, 3] was 0.154 µM, the “Agonistic Activity (%) at 10 μM” value [1] was 49.93% and the EC50 [2, 4] was 0.149 µM.
In the case of `CCCCCCCC[C@H](NC(=O)[C@H](Cc1c[nH]c2ccccc12)NC(C)=O)C(=O)N[C@@H](CC(=O)O)C(=O)N[C@@H](Cc1cccc(Br)c1)C(N)=O` [HT-261, Ac-D-Trp-Da-Asp-Phe(3-Br)-NH2] (Ac-W[Gly(octyl)]D[Phe(3-Br)]-NH2), the EC50 [1, 5] was 0.362 µM and the EC50 ([2]; in presence of 10 nM CCK8) was 3.82 µM.
With `CCCCCCC[C@@H](NC(C)=O)C(=O)N[C@@H](CCCC)C(=O)N[C@@H](CCC(=O)O)C(=O)N[C@@H](Cc1cccc(Br)c1)C(N)=O` [HT-264, Ac-Na-Nle-Glu-Phe(3-Br)-NH2] the EC50 [1, 5] was 11 µM and the EC50 [2, 6] was > 10 µM.
`CSCC[C@H](NC(=O)[C@@H](Cc1c[nH]c2ccccc12)NC(C)=O)C(=O)N[C@@H](CC(N)=O)C(=O)N[C@@H](Cc1cccc(Br)c1)C(N)=O` [HT-187, Ac-D-Trp-Met-Asn-Phe(3-Br)-NH2] (Ac-[dW]MN[Phe(3-Br)]-NH2) was tested, and the EC50 ([1]; compound alone, bound in μM) was > 10 µM and the EC50 [2, 7] was > 10 µM.
`CS(=O)(=O)CC[C@H](NC(=O)[C@H](N)Cc1c[nH]c2ccccc12)C(=O)N[C@@H](CC(=O)O)C(=O)N[C@@H](Cc1cc(Cl)cc(Cl)c1)C(N)=O` [HT-72, D-Trp-Met(O2)-Asp-Phe(3,5-DiCl)-NH2] was tested, and the EC50 [1, 3] was 1.51 µM, the “Agonistic Activity (%) at 10 μM” value [1] was 82.71% and the EC50 [2, 4] was 2.62 µM.
Work on `CCCC[C@H](NC(=O)[C@@H](Cc1c[nH]c2cc(O)ccc12)NC(C)=O)C(=O)N[C@@H](CC(=O)O)C(=O)N[C@@H](Cc1cccc(Br)c1)C(N)=O` [HT-227, Ac-(5-HTP)-Nle-Asp-Phe(3-Br)-NH2] (Ac-[dTrp(6-OH)][Nle]D[Phe(3-Br)]-NH2) yielded an EC50 [1, 5] of 0.022 µM and an EC50 ([2]; in presence of 10 nM CCK8) of 3.4 µM.
With `CCCC[C@H](NC(=O)[C@H](Cc1c[nH]c2ccccc12)NC(=O)CNC(C)=O)C(=O)N[C@@H](CC(=O)O)C(N)=O` [HT-214, Ac-Gly-Trp-Nle-Asp-NH2] (Ac-GW[Nle]D-NH2) the EC50 [1, 8] was > 10 µM and the EC50 [2, 6] was > 10 µM.
`CS(=O)(=O)CC[C@H](NC(=O)[C@H](N)Cc1c[nH]c2ccccc12)C(=O)N[C@@H](CC(=O)O)C(=O)N[C@@H](Cc1cc(F)c(F)c(F)c1)C(N)=O` [HT-74, D-Trp-Met(O2)-Asp-Phe(3,4,5-TriF)-NH2] was tested, and the EC50 [1, 3] was 11 µM, the “Agonistic Activity (%) at 10 μM” value [1] was 55.05% and the EC50 [2, 4] was 8.42 µM.
For `CCCCCCCCCCCCCC[C@@H](NC(C)=O)C(=O)N[C@@H](CCCC)C(=O)N[C@@H](CCCCCC)C(=O)N[C@@H](Cc1cccc(Br)c1)C(N)=O` [HT-266, Ac-Ha-Nle-Oa-Phe(3-Br)-NH2], the EC50 [1, 5] was 0.0402 µM and the EC50 ([2]; in presence of 10 nM CCK8) was 1.29 µM.
With `CCCC[C@H](NC(=O)[C@H](Cc1c[nH]c2ccccc12)NC(C)=O)C(=O)N[C@@H](CCC(=O)O)C(=O)N[C@@H](Cc1c[nH]c2ccc(O)cc12)C(N)=O` [HT-239, Ac-D-Trp-Nle-Glu-(5-HTP)-NH2] (Ac-W[Nle]E[Trp(5-OH)]-NH2) the EC50 [1, 8] was > 10 µM and the EC50 [2, 6] was > 10 µM.
For `C[S+]([O-])CC[C@H](NC(=O)[C@H](N)Cc1c[nH]c2ccccc12)C(=O)N[C@@H](CC(=O)O)C(=O)N[C@@H](Cc1cccc(Cl)c1)C(N)=O` (stereo partly drawn) [HT-43, D-Trp-Met(O)-Asp-Phe(3-Cl)-NH2], the EC50 [1, 3] was 3.02 µM, the “Agonistic Activity (%) at 10 μM” value [1] was 62.14% and the EC50 [2, 4] was 8.97 µM.
`CCCC[C@H](NC(=O)[C@@H](Cc1c[nH]c2ccccc12)N(C)C(=O)OCC1c2ccccc2-c2ccccc21)C(=O)N[C@@H](CC(=O)OC)C(=O)N[C@@H](Cc1cccc(Br)c1)C(N)=O` [HT-253, Fmoc-(N-Me-Trp)-Nle-Asp(O-Me)-Phe(3-Br)-NH2] (Fmoc-[dNMeW][Nle]D(OMe)[Phe(3-Br)]-NH2) showed an EC50 [1, 5] of 0.744 µM and an EC50 ([2]; in presence of 10 nM CCK8) of 1.92 µM.
Compound `CCCCC[C@H](NC(=O)[C@@H](Cc1c[nH]c2ccccc12)NC(C)=O)C(=O)N[C@@H](CC(=O)O)C(=O)N[C@@H](Cc1cccc(Br)c1)C(N)=O` [HT-257, Ac-D-Trp-Pa-Asp-Phe(3-Br)-NH2] (Ac-[dW][Ahp(2)]D[Phe(3-Br)]-NH2) has an EC50 [1, 5] of 0.00334 µM and an EC50 ([2]; in presence of 10 nM CCK8) of 0.132 µM.
In the case of `CS(=O)(=O)CC[C@H](NC(=O)[C@H](N)Cc1c[nH]c2ccccc12)C(=O)N[C@@H](CC(=O)O)C(=O)N[C@@H](Cc1cccc(F)c1)C(N)=O` [HT-61, D-Trp-Met(O2)-Asp-Phe(3-F)-NH2], the “Agonistic Activity (%) at 10 μM” value [1] was 36.66% and the EC50 [2, 7] was > 10 µM.
`CSCC[C@H](NC(=O)[C@H](Cc1c[nH]c2ccccc12)NC(C)=O)C(=O)N[C@@H](CC(=O)O)C(=O)N[C@@H](CCC(=O)O)C(N)=O` [HT-196, Ac-Trp-Met-Asp-Glu-NH2] was tested, and the EC50 [1, 8] was > 10 µM and the EC50 [2, 6] was > 10 µM.
